Legend:
[1] = tested on: cells in a static monolayer culture; test: IC90 in static monolayer culture (tested concentration); type: cell-based; conditions: concentration that inhibits the growth of 90% of the cells in a static monolayer culture
Procedure: Table 1 includes a list of investigated chemotherapeutic drugs, their mechanisms of action and the tested concentrations.
After 72 hours of initial seeding, one of the five drugs was added to Treatments 3 and 6 of each cell line. […] The IC90, concentration of the drug that inhibits the growth of 90% of the cells in a static monolayer culture, was used to assure a significant inhibition in the absence of simulated forces. To insure comparability, an aliquot of 1 ml of media without the drug was added to each well in Treatments 2 and 5. After adding the drug or 1 ml of media, the plates from Treatments 5 and 6 were placed back on the baseplate and subjected to the same force profile as before for the remaining 72 hours. Plates from Treatments 2 and 3 (without forces) were placed in the same incubator for the remaining 72 hours.

A549 cells [2] = test: Prototype 96-well plate, viable cell count (Vi-Cell) with and without mechanical forces; conditions: drug at IC90, 24 hours
Procedure: After allowing the cells to adhere to the flexible membrane of the 96 well plate for 24 hours, the loading pins and the system described in FIG. 7 to implement mechanical strain were used to deliver 20% maximum strain for 2 seconds to the plate assigned for mechanical forces (+M Group), followed by 2 seconds of rest (15 cycles per minute with an average strain of 10% per cycle) in keeping with a normal human respiration.
In a parallel experiments, the cells were treated with anti-tumor drug after 72 hours of initial seeding (after 48 hours of mechanical stretching). The drug was dissolved in dimethyl sulfoxide (DMSO) at stock concentration and added to the respective media. […] The IC90 concentrations of the drugs were then added to prototype plate.
The +M Group was subjected to continuous mechanical stretching while the −M Group plate was placed in the same incubator for additional 24 hours.
In order to quantify viability, 6 wells per treatment group for ViCell counter and 6 wells per condition for MTS were assigned to determine the cell viability. Using Vi-Cell counter, assigned wells were filled with extra 210 μl of media to keep the volume constant in all the wells. Media from the assigned wells were transferred into a 24-well plate, and the well location was recorded. About 50 μl of trypLE was added to each well and allowed to trypsinize for a maximum of ten minutes. A small amount of media from the 24-well plate was transferred back into corresponding wells of the prototype plate to collect detached cells.
Media and cells were transferred back into the corresponding well of the 24-well plate. All wells were brought to a final volume of 1.25 mL with PBS and mixed well. About 1 ml of this cell suspension was transferred to ViCell counter to determine the number of viable cells.

[3] = tested on: H358 cells grown as 3D tissues; test: 3D culture antiproliferative MTS assay in collagen with and without mechanical forces; type: cell-based; conditions: Homo sapiens, NCI-H358, 72 h, H358 3D in collagen, 72 hours exposure
Procedure: Effects of mechanical forces on engineered 3-dimensional tumor tissues were also studied, An experiment was conducted with paclitaxel, which was tested in the presence and absence of mechanical forces in H358 cells (bronchioalveolar carcinoma) grown as 3D tissues in type 1 rat tail collagen scaffold. The cells were seeded at a density of 4×10^6 cells per well in 6-well Bioflex collagen I plates and cultured in PRMI 1640 medium The forces that were tested were configured to mimic normal respiration. After 24 hours of seeding, cells were stretched from 0% to a maximum of 20% elongation for 2 seconds followed by 2 seconds of rest continuously for 4 days. Control group included cells that were plated in collagen at the same densities and incubated for 5 days without mechanical forces. […] As a note, a computing system similar to FIG. 6 can be used to control an experiment system in order to provide predetermined cycles of mechanical strain and relaxation.
Following 24 hours of stetching, paclitaxel was added to H358 cells in ten 1:3 dilutions with starting concentrations 100 μM. […] Dose response curves were plotted and corresponding IC50 values (concentration of the drug at which 50% of the cells are inhibited) were calculated for stretched and un-stretched conditions using Graphpad Prism software.

H358 cells = test: Prototype 96-well plate, MTS assay with and without mechanical forces; type: cell-based, human; conditions: drug at IC90, 24 hours, 490 nm
Procedure: (§1) The prototype plate was read using the Biotek plate reader at the wavelength of 490 nm until the media only wells absorbance reached 1.0. For the +M group plate, 30 ul of MTS was added to the assigned wells and kept in the incubator for the same amount of time that required for the −M group to develop and read at the same wavelength.

A549 cells [4] = test: as above; type: cell-based, human; conditions: A549, drug at IC90, 24 hours, 490 nm
Procedure: as §1

- IC50 ([3]; absence of mechanical stress): 22.6 µM
- IC50 ([3]; cells experiencing mechanical stress (0-20% elongation)): 0.2 µM
SMILES: CC(=O)O[C@H]1C(=O)[C@@]2(C)[C@H]([C@H](OC(=O)c3ccccc3)[C@]3(O)C[C@H](OC(=O)[C@H](O)[C@@H](NC(=O)c4ccccc4)c4ccccc4)C(C)=C1C3(C)C)[C@]1(OC(C)=O)CO[C@@H]1C[C@@H]2O [Paclitaxel]
- IC90 [1]: 0.05 µM
- Viable Cell Count after 24 hours of drug exposure, With forces (Ef) (A549 cells [2]; mechanical forces): 11875.0
- Viable Cell Count after 24 hours of drug exposure, Without forces (E) (A549 cells [2]; no forces): 33125.0
- MTS absorbance after 24 hours of drug exposure, With forces (Ef) (H358 cells; mechanical forces): 0.345
- MTS absorbance after 24 hours of drug exposure, Without forces (E) (H358 cells; no forces): 0.522
- MTS absorbance after 24 hours of drug exposure, With forces (Ef) (A549 cells [4]; mechanical forces): 0.293
- MTS absorbance after 24 hours of drug exposure, Without forces (E) (A549 cells [4]; no forces): 0.567
